Results as given in patent US10471046B2, “Method for treating, preventing, or reducing the risk of skin infection” (Melinta Subsidiary Corp., priority 2014, dated 2019).
In brackets after ≈: the same amount, converted by molar mass.

Key:
Assay type in all cases: cell-based
F. magna = experiment: Broth microdilution MIC; conditions: Finegoldia magna, ATCC15794; F. magna ATCC 15794
Enterococcus faecium = experiment: MIC against ribosome-based resistance phenotypes; conditions: Enterococcus faecium A6349; VanA + Lin-R (G2576U); read-out: Minimum Inhibitory Concentration (MIC)
Description: Furthermore, the antibiotic compounds can be assayed for anti-proliferative or anti-infective properties on a cellular level. For example, where the target organism is a microorganism, the activity of compounds of interest can be assayed by growing the microorganisms of interest in media either containing or lacking the compound. Growth inhibition can be indicative that the molecule could be acting as a protein synthesis inhibitor. […] For this purpose, a panel of bacterial strains can be assembled to include a variety of target pathogenic species, some containing resistance mechanisms that have been characterized. Use of such a panel of organisms permits the determination of structure-activity relationships not only in regards to potency and spectrum, but also with a view to obviating resistance mechanisms. The assays can be performed in microtiter trays according to conventional methodologies as published by The National Committee for Clinical Laboratory Standards (NCCLS) guidelines (NCCLS. M7-A5-Methods for Dilution Antimicrobial Susceptibility Tests for Bacteria That Grow Aerobically; Approved Standard-Fifth Edition. NCCLS Document M100-S12/M7 (ISBN 1-56238-394-9)).

B. thetaiotaomicron = experiment: microbe, parasite or virus in culture; conditions: Bacteroides thetaiotaomicron, ATCC29741; B. thetaiotaomicron ATCC 29741; read-out: MIC, broth microdilution

Compound `CC(=O)NC[C@H]1CN(c2ccc(-c3ccc(CNCc4cnn[nH]4)cc3)c(F)c2)C(=O)O1` [Radezolid, (5S)—N-[3-(2-Fluoro-4′-{[(1H-[1,2,3]triazol-4-ylmethyl)-amino]-methyl}-biphenyl-4-yl)-2-oxo-oxazolidin-5-ylmethyl]-acetamide] has an MIC (F. magna) of 0.125 µg/mL (≈ 0.285 µM), an MIC (Enterococcus faecium) of 0.5 µg/mL and an MIC (B. thetaiotaomicron) of 8 µg/mL (≈ 18.2 µM).
